Among the data in patent US20260053834A1, “COVALENT MODIFIERS OF AKT1 AND USES THEREOF” (Terremoto Biosciences, Inc., priority 2023, published 2026) are IC50 values, retold here.

Where only a bound is given, the exact number is not on record here.

Assay [1] has as its system LAPC4 prostate cancer cells, which express the AKT1 E17K allele. Put plainly: Antiproliferative effects in LAPC4 cells (CellTiter Glo, 72 h). Format: cell-based. To be noted: Homo sapiens, LAPC4, 72 h, read-out: LAPC4 proliferation IC50: GeoMean IC50. A digest of the protocol:
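Cells grown in IMDM with 12% FBS, seeded at 1,000 cells/well and treated with compound dilutions in DMSO for 72 h. Intracellular ATP read by luminescence. IC50 from a log(inhibitor) vs. response Hill fit.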
For orientation: ATP-based viability assays read luminescence as a measure of living cells.

Assay [2] has as its target T1, AKT1 E17K (Homo sapiens, UniProt P31749, E17K).
T1 construct: expressed in transfected cells; host or cells: HEK293
Put plainly: Live cell target engagement by NanoBRET competitive probe displacement, AKT1 E17K. It counts as binding. To be noted: transfected HEK293 cells, 2 h at 37° C., read-out: AKT1 E17K IC50: GeoMean IC50. In general terms: In BRET a luciferase serves as donor, and the signal depends on an acceptor being close.

The target in assay [3] is T2, AKT1 WT (Homo sapiens, UniProt P31749).
T2 construct: expressed in transfected cells; host or cells: HEK293
Description: Live cell target engagement by NanoBRET competitive probe displacement, AKT1 WT. To be noted: transfected HEK293 cells, 2 h at 37° C., read-out: AKT1 WT IC50: GeoMean IC50. It counts as binding.

Assay [4] concerns the target T3, AKT2 (Homo sapiens, UniProt P31751).
T3 construct: expressed in transfected cells; host or cells: HEK293
Description: Live cell target engagement by NanoBRET competitive probe displacement, AKT2. Format: binding. To be noted: transfected HEK293 cells, 2 h at 37° C., read-out: AKT2 IC50: GeoMean IC50.

T3 sequence (P31751 whole entry): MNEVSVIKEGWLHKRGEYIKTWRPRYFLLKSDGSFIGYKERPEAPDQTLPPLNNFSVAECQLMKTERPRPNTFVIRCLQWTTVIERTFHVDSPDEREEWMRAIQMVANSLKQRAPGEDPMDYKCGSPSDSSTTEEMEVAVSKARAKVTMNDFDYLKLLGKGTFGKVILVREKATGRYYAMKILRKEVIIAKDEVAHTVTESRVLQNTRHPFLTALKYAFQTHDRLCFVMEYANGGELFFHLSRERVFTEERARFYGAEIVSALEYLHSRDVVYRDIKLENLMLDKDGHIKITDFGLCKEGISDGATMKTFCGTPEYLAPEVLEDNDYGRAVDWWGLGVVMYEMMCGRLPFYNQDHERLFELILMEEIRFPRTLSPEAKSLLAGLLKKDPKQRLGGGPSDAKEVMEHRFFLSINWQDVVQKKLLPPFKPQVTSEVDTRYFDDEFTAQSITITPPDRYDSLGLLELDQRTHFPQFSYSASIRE
T2 sequence (P31749 whole entry): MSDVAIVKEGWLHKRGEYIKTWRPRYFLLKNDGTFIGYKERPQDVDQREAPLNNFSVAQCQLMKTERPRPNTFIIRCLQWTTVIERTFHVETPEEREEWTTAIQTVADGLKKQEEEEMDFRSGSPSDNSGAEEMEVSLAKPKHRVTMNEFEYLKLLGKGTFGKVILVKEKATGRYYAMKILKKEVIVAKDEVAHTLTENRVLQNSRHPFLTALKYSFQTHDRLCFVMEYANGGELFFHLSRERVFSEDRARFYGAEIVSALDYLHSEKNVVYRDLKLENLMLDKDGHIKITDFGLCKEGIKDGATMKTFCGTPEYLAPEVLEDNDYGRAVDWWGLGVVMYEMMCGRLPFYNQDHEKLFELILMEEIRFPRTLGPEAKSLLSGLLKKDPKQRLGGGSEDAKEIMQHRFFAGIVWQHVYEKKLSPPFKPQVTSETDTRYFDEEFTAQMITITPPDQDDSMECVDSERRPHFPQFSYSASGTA
T1 sequence (P31749 whole entry E17K): as the sequence (P31749 whole entry) above, with E17K counted along it

`Nc1ncccc1-c1nc2ccc(-n3cccn3)nc2n1-c1ccc2c(c1)CC[C@@H]2N1Cc2cc(O)c(C=O)cc2C1=O` [Example 208, (S)-2-(5-(2-(2-aminopyridin-3-yl)-5-(1H-pyrazol-1-yl)-3H-imidazo[4,5-b]pyridin-3-yl)-2,3-dihydro-1H-inden-1-yl)-6-hydroxy-3-oxoisoindoline-5-carbaldehyde]: the IC50 in assay [1], in assay [2], in assay [3] and in assay [4] was at least 2000 nM throughout.
Consider `COc1cc(O)c(C=O)cc1C(=O)N[C@H]1CCc2cc(-n3c(-c4cccnc4N)nc4ccc(-c5ccccc5)nc43)ccc21` [Example 17, N-[(1S)-5-[2-(2-aminopyridin-3-yl)-5-phenylimidazo[4,5-b]pyridin-3-yl]-2,3-dihydro-1H-inden-1-yl]-5-formyl-4-hydroxy-2-methoxybenzamide], for which the IC50 in assay [1], in assay [2], in assay [3] and in assay [4] was 100 to 2000 nM throughout.
On to `Nc1ncccc1-c1nc2ccc(-c3ccccc3)nc2n1-c1ccc2c(c1)CC[C@@H]2NC(=O)c1cnn2ccc(O)c(C=O)c12` [Example 54, N-[(1S)-5-[2-(2-aminopyridin-3-yl)-5-phenylimidazo[4,5-b]pyridin-3-yl]-2,3-dihydro-1H-inden-1-yl]-4-formyl-5-hydroxypyrazolo[1,5-a]pyridine-3-carboxamide], for which the IC50 was at least 2000 nM in assay [1], 100 to 2000 nM in assay [2], 10 to 100 nM in assay [3] and 100 to 2000 nM in assay [4].
Take `Nc1ncccc1-c1nc2ccc(-c3ccccc3)nc2n1-c1ccc2c(c1)CCC2C(=O)Nc1ccc(O)c(C=O)c1` (centres unmarked) [Example 27, 5-[2-(2-aminopyridin-3-yl)-5-phenylimidazo[4,5-b]pyridin-3-yl]-N-(3-formyl-4-hydroxyphenyl)-2,3-dihydro-1H-indene-1-carboxamide]: the IC50 in assay [1] is 100 to 2000 nM; in assay [2], 10 to 100 nM; in assay [3] it was 100 to 2000 nM; in assay [4] it was 100 to 2000 nM.
In the case of `Nc1ncccc1-c1nc2ccc(-n3cc4c(n3)COC4)nc2n1-c1ccc2c(c1)CC[C@@H]2NC(=O)c1ccc(O)c(C=O)c1` [Example 207, N-[(1S)-5-[2-(2-aminopyridin-3-yl)-5-{4H,6H-furo[3,4-c]pyrazol-2-yl}imidazo[4,5-b]pyridin-3-yl]-2,3-dihydro-1H-inden-1-yl]-3-formyl-4-hydroxybenzamide], the IC50 in assay [1] lay within 100 to 2000 nM; in assay [2], 10 to 100 nM; in assay [3] it was 10 to 100 nM; in assay [4], 100 to 2000 nM.
With `Nc1ncccc1-c1nc2ccc(-c3ccccc3)nc2n1-c1ccc2c(c1)C(=O)C[C@@H]2NC(=O)c1ccc(O)c(C=O)c1` [Example 74, N-[(1S)-5-[2-(2-aminopyridin-3-yl)-5-phenylimidazo[4,5-b]pyridin-3-yl]-3-oxo-1,2-dihydroinden-1-yl]-3-formyl-4-hydroxybenzamide], the IC50 lay within 100 to 2000 nM in assay [1], 10 to 100 nM in assay [2], 100 to 2000 nM in assay [3] and 100 to 2000 nM in assay [4].
For the molecule `Nc1ncccc1-c1nc2ccc(-c3ccccc3)nc2n1-c1ccc2c(c1)CC[C@@H]2NC(=O)c1cc(F)c(O)c(C=O)c1` [Example 8, N-[(1S)-5-[2-(2-aminopyridin-3-yl)-5-phenylimidazo[4,5-b]pyridin-3-yl]-2,3-dihydro-1H-inden-1-yl]-3-fluoro-5-formyl-4-hydroxybenzamide], the IC50 in assay [1] lay in the range of 10 to 100 nM; in assay [2], 10 to 100 nM; in assay [3], 10 to 100 nM; in assay [4], 100 to 2000 nM.
On to `Nc1ncccc1-c1nc2ccc(-c3cnn(C4CC4)c3)nc2n1-c1ccc2c(c1)CC[C@@H]2NC(=O)c1ccc(O)c(C=O)c1` [Example 62, N-[(1S)-5-[2-(2-aminopyridin-3-yl)-5-(1-cyclopropylpyrazol-4-yl)imidazo[4,5-b]pyridin-3-yl]-2,3-dihydro-1H-inden-1-yl]-3-formyl-4-hydroxybenzamide], for which the IC50 lay in the range of 100 to 2000 nM in assay [1], 10 to 100 nM in assay [2], 10 to 100 nM in assay [3] and 100 to 2000 nM in assay [4].
For `Nc1ncccc1-c1nc2ccc(-c3ccccc3)nc2n1-c1ccc2c(c1)CC[C@@H]2NC(=O)c1cc(C=O)c2[nH]nnc2c1` [Example 137, N-[(1S)-5-[2-(2-aminopyridin-3-yl)-5-phenylimidazo[4,5-b]pyridin-3-yl]-2,3-dihydro-1H-inden-1-yl]-7-formyl-1H-1,2,3-benzotriazole-5-carboxamide], the IC50 in assay [1] is 10 to 100 nM; in assay [2], below 10 nM; in assay [3], below 10 nM; in assay [4], below 10 nM.
`Nc1ncccc1-c1nc2ccc(-n3cc4c(n3)CNC4)nc2n1-c1ccc2c(c1)CC[C@@H]2NC(=O)c1ccc(O)c(C=O)c1` [Example 160, N-[(1S)-5-[2-(2-aminopyridin-3-yl)-5-{4H,5H,6H-pyrrolo[3,4-c]pyrazol-2-yl}imidazo[4,5-b]pyridin-3-yl]-2,3-dihydro-1H-inden-1-yl]-3-formyl-4-hydroxybenzamide]: the IC50 in assay [1] was at least 2000 nM; in assay [2], 100 to 2000 nM; in assay [3], 100 to 2000 nM; in assay [4], 100 to 2000 nM.
`Cc1ccn(-c2ccc3nc(-c4cccnc4N)n(-c4ccc5c(c4)CC[C@@H]5NC(=O)c4ccc(O)c(C=O)c4)c3n2)n1` [Example 95, N-[(1S)-5-[2-(2-aminopyridin-3-yl)-5-(3-methylpyrazol-1-yl)imidazo[4,5-b]pyridin-3-yl]-2,3-dihydro-1H-inden-1-yl]-3-formyl-4-hydroxybenzamide]: the IC50 in assay [1] lay in the range of 10 to 100 nM; in assay [2], 10 to 100 nM; in assay [3], 10 to 100 nM; in assay [4], 100 to 2000 nM.
In the case of `Cc1cnc(N)c(-c2nc3ccc(-n4cccn4)nc3n2-c2ccc3c(c2)CC[C@@H]3NC(=O)c2ccc(O)c(C=O)c2)c1` [Example 167, (S)—N-(5-(2-(2-amino-5-methylpyridin-3-yl)-5-(1H-pyrazol-1-yl)-3H-imidazo[4,5-b]pyridin-3-yl)-2,3-dihydro-1H-inden-1-yl)-3-formyl-4-hydroxybenzamide], the IC50 in assay [1] is at least 2000 nM; in assay [2], 100 to 2000 nM; in assay [3], 100 to 2000 nM; in assay [4] it was 100 to 2000 nM.
Regarding `Nc1ncccc1-c1nc2ccc(-c3ccccc3)nc2n1-c1ccc2c(c1)CC[C@@H]2NC(=O)c1cc(C=O)c(O)c(Cl)n1` [Example 176, (S)—N-(5-(2-(2-aminopyridin-3-yl)-5-phenyl-3H-imidazo[4,5-b]pyridin-3-yl)-2,3-dihydro-1H-inden-1-yl)-6-chloro-4-formyl-5-hydroxypicolinamide], the IC50 in assay [1] is 100 to 2000 nM; in assay [2], 10 to 100 nM; in assay [3], 100 to 2000 nM; in assay [4], 100 to 2000 nM.
In the case of `Nc1ncccc1-c1nc2ccc(-c3nccs3)nc2n1-c1ccc2c(c1)CC[C@@H]2NC(=O)c1cc(F)c(O)c(C=O)c1` [Example 130, N-[(1S)-5-[2-(2-aminopyridin-3-yl)-5-(1,3-thiazol-2-yl)imidazo[4,5-b]pyridin-3-yl]-2,3-dihydro-1H-inden-1-yl]-3-fluoro-5-formyl-4-hydroxybenzamide], the IC50 in assay [1] is 10 to 100 nM; in assay [2], 10 to 100 nM; in assay [3] it was 10 to 100 nM; in assay [4], 100 to 2000 nM.
